Results on eleven molecules are retold here after patent publication US20240246946A1, “MODULATORS OF TREX1” (Constellation Pharmaceuticals, Inc., priority 2021, published 2024).

One test concerns the target T1, full length human TREX1 (Homo sapiens, UniProt Q9NSU2).
T1 construct: N-terminally His-Tev tagged full length human TREX1; made in house; host or cells: E. coli
T1 sequence (Q9NSU2 1-314): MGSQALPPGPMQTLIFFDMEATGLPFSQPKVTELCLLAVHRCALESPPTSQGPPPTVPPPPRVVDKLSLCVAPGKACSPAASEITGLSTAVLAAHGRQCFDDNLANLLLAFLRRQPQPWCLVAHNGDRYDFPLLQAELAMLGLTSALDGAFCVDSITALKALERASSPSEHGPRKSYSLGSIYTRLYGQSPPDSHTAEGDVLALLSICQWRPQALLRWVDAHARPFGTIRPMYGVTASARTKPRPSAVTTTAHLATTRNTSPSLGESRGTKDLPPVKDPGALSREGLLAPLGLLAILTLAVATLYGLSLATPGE
The experiment in a line: hTREX1 Biochemical Assay (fluorescence, dsDNA substrate degradation). The settings on record: biochemical, read-out: hTREX1 IC50. In short, it runs like this: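 Cleavage of 60 nM TEX615/quencher-labelled dsDNA in pH 7.4 Tris buffer with 5 mM MgCl2, 1.0% DMSO, run 18 hours at 25° C, EDTA-quenched; fluorescence read-out.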

Another test concerns the target T2, full length mouse TREX1 (Mus musculus, UniProt Q91XB0).
T2 construct: N-terminally His-Tev tagged full length mouse TREX1; made in house; host or cells: E. coli
T2 sequence (Q91XB0 1-314): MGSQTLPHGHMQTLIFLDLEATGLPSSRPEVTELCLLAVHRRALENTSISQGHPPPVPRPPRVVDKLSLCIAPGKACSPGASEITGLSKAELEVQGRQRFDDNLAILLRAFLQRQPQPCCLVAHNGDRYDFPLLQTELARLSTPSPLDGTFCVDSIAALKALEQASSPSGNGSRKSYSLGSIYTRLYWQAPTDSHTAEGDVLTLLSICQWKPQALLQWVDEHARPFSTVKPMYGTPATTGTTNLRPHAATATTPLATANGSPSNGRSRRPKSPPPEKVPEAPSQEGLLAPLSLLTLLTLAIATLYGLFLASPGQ
The experiment in a line: mTREX1 Biochemical Assay (fluorescence, dsDNA substrate degradation). Particulars: biochemical, read-out: mTREX1 IC50. In short, it runs like this: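 Reaction run 18 h at 25° C. with 60 nM TEX615/quencher-labelled dsDNA and 6 pM mouse TREX1 in Tris buffer (pH 7.4, 5 mM MgCl2, 1.0% DMSO), enzyme having sat 4 h with compound across 10 concentrations. EDTA quench; substrate degradation measured as fluorescence increase.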

In test [1] the target is T3, human TREX2 (residues M44-A279) (Homo sapiens, UniProt Q9BQ50).
T3 construct: human TREX2 (residues M44-A279, expressed in E. coli); made in house; host or cells: E. coli
T3 sequence (Q9BQ50 44-279 isoform Q9BQ50-1): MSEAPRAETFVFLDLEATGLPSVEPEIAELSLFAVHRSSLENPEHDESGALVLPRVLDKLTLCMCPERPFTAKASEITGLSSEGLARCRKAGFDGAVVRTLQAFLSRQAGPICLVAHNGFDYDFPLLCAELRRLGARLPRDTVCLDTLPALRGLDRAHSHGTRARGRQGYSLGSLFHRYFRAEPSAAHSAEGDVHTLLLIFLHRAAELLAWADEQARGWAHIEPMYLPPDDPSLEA
The experiment in a line: hTREX2 Biochemical Assay (fluorescence, dsDNA substrate degradation). The settings on record: biochemical selectivity for hTREX1 vs hTREX2. In a few lines:
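N-His-Tev E. coli enzyme (50 pM) pre-incubated with compound 4 h at 25 °C, then 60 nM TEX615/quencher dsDNA added; 18 h at 25 °C, pH 7.4 Tris buffer with 5 mM MgCl2, 1.0% DMSO. EDTA-quenched; fluorescence 570 ex/615 em from liberated fluorophore, 10-point dose-response.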

In a further test the target is T4, hTREX1 (Homo sapiens, UniProt Q9NSU2).
T4 construct: host or cells: HCT116 dual cells
T4 sequence (Q9NSU2 1-314): T1 sequence (Q9NSU2 1-314)
The experiment in a line: hTREX1 HCT116 Cell Assay (HCT116 dual cells, Lucia luciferase reporter of Type I interferon induction). It counts as cell-based. Particulars: TREX1i 4 h before pBR322/BstNI transfection, read after 48 h. The source says:
HCT116 dual cells (Invivogen, San Diego, CA, USA) are derived from the human HCT116 colorectal carcinoma cell line. Cells have been selected for the stable integration of SEAP and Luciferase reporter genes, which expression is under the control of 5 tandem response elements for NF-KB/AP1 and STAT1/STAT2, respectively. The cell line was used to monitor Type I interferon induction and subsequent signaling by measuring the activity of the Lucia luciferase secreted in the culture medium.
HCT116 cells were plated in 96-well plate(s) at 40,000 cells/well in 100 uL DMEM supplemented with 10% FBS and 25 mM Hepes (pH 7.2-7.5). After overnight settling, cells were treated with TREX1i for 4 h (maximum DMSO fraction was 0.1%) before 1 ug/mL pBR322/BstNI restriction digest (New England Biolabs, Ipswich, MA, USA) was transfected with Lipofectamine LTX (ThermoFisher, Grand Island, NY, USA), according to product manual recommendations. Briefly, Lipofectamine LTX (0.35 uL/well) was diluted in OptiMEM (5 uL/well). pBR322/BstNI (100 ng/well) was diluted in OptiMEM (5 uL/well) before Plus reagent (0.1 uL/100 ng DNA) was added. After 5 min incubation at room temperature, the DNA mixture was mixed dropwise with the diluted Lipofectamine LTX. After an additional 10 min incubation, the transfection mix (10 uL/well) was added to the cells. Cells were maintained at 37 C for 48 h before monitoring the Lucia Luciferase activity from the cell culture medium.
In general terms: A reporter such as luciferase makes a cellular process visible.

In general, IC50 refers to the point on the concentration scale where inhibition reaches its midpoint. Consider `CC(c1nc(C(=O)Nc2cnoc2)c(O)c(=O)n1C)C(c1cnn(C)c1)c1ccc(C(=O)N(C)C)cc1C#N` (single isomer, unassigned) [Example 11 D1E1], for which the values for the IC50 on full length human TREX1, on full length mouse TREX1 and at hTREX1 were below 0.001 µM, below 0.001 µM and above 0.1 µM, respectively. For the same molecule, the “hTREX1 vs hTREX2 selectivity” value in test [1] was “B (B = 25 to 50-fold selective for hTREX1)”.

Take `CC(c1nc(C(=O)Nc2cnoc2)c(O)c(=O)n1C)C(c1cn[nH]c1)c1ccccc1C#N` (single isomer, unassigned) [Example 12 D1E1]: the values for the IC50 at full length human TREX1, on full length mouse TREX1 and on hTREX1 were below 0.001 µM, 0.001 to 0.01 µM and 0.01 to 0.1 µM, respectively. The “hTREX1 vs hTREX2 selectivity” value in test [1] was “C (C = >50 fold selective for hTREX1)”.

Regarding `CC(c1nc(C(=O)Nc2cnoc2)c(O)c(=O)n1C)C(c1cn[nH]c1)c1ccccc1C#N` (single isomer, unassigned) [Example 12 D2E1], the results for the IC50 on full length human TREX1, on full length mouse TREX1 and against hTREX1 were 0.001 to 0.01 µM, above 0.01 µM and above 0.1 µM, respectively. Further, the “hTREX1 vs hTREX2 selectivity” value in test [1] is “C (C = >50 fold selective for hTREX1)”.

As for `CCn1cc(C(c2ccccc2C#N)C(C)c2nc(C(=O)Nc3cnoc3)c(O)c(=O)n2C)cn1` (single isomer, unassigned) [Example 13 D2E1], the IC50 was 0.001 to 0.01 µM at full length human TREX1, above 0.01 µM at full length mouse TREX1 and above 0.1 µM on hTREX1. In test [1], the “hTREX1 vs hTREX2 selectivity” value was “B (B = 25 to 50-fold selective for hTREX1)”.

In the case of `CC(c1nc(C(=O)Nc2cnoc2)c(O)c(=O)n1C)C(c1cnn(C)c1)c1ccc(F)cc1C#N` (single isomer, unassigned) [Example 15 D1E1], the results for the IC50 at full length human TREX1, on full length mouse TREX1 and on hTREX1 were below 0.001 µM, 0.001 to 0.01 µM and below 0.01 µM, respectively. The “hTREX1 vs hTREX2 selectivity” value in test [1] is given as “C (C = >50 fold selective for hTREX1)”.

For `CC(c1nc(C(=O)Nc2cnoc2)c(O)c(=O)n1C)C(c1cnn(CCN2CCOCC2)c1)c1ccccc1C#N` (single isomer, unassigned) [Example 20 D1E1], the IC50 is below 0.001 µM on full length human TREX1, 0.001 to 0.01 µM on full length mouse TREX1 and 0.01 to 0.1 µM against hTREX1. For the same molecule, the “hTREX1 vs hTREX2 selectivity” value in test [1] is given as “C (C = >50 fold selective for hTREX1)”.

As to `CC(c1nc(C(=O)Nc2cnoc2)c(O)c(=O)n1C)C(c1cnn(CCN2CCN(C(=O)OC(C)(C)C)CC2)c1)c1ccccc1C#N` (single isomer, unassigned) [Example 21 D1E1], the values for the IC50 at full length human TREX1, at full length mouse TREX1 and against hTREX1 were below 0.001 µM, 0.001 to 0.01 µM and 0.01 to 0.1 µM, respectively. Besides, the “hTREX1 vs hTREX2 selectivity” value in test [1] is listed as “C (C = >50 fold selective for hTREX1)”.

In the case of `COCCCn1cc(C(c2ccccc2C#N)C(C)c2nc(C(=O)Nc3cnoc3)c(O)c(=O)n2C)cn1` (single isomer, unassigned) [Example 24 D1E1], the IC50 at full length human TREX1 is below 0.001 µM; at full length mouse TREX1 it was below 0.001 µM; against hTREX1, below 0.01 µM. For the same molecule, the “hTREX1 vs hTREX2 selectivity” value in test [1] is listed as “C (C = >50 fold selective for hTREX1)”.

Regarding `CC(c1nc(C(=O)Nc2cnoc2)c(O)c(=O)n1C)C(c1cnn(C)c1)c1cc(F)c(F)cc1C#N` (single isomer, unassigned) [Example 25 D1E1], the figures for the IC50 on full length human TREX1, at full length mouse TREX1 and against hTREX1 were below 0.001 µM, 0.001 to 0.01 µM and below 0.01 µM, respectively. Further, the “hTREX1 vs hTREX2 selectivity” value in test [1] is reported as “C (C = >50 fold selective for hTREX1)”.

In the case of `CC(c1nc(C(=O)Nc2cnoc2)c(O)c(=O)n1C)C(c1cnn(C)c1)c1ccc(Cl)cc1C#N` (single isomer, unassigned) [Example 27 D1E1], the IC50 was below 0.001 µM at full length human TREX1, below 0.001 µM at full length mouse TREX1 and below 0.01 µM against hTREX1. The “hTREX1 vs hTREX2 selectivity” value in test [1] is given as “C (C = >50 fold selective for hTREX1)”.

As to `CC(c1nc(C(=O)Nc2cnoc2)c(O)c(=O)n1C)C(c1cnn(C)c1)c1cc(C(F)(F)F)ccc1C#N` (single isomer, unassigned) [Example 29 D1E1], the IC50 at full length human TREX1 was below 0.001 µM; on full length mouse TREX1, 0.001 to 0.01 µM; at hTREX1 it was below 0.01 µM. In addition, the “hTREX1 vs hTREX2 selectivity” value in test [1] was “C (C = >50 fold selective for hTREX1)”.
